Usually pIC50 stands for −log10 of the IC50, conventionally taken in molar units.

From US6903104B2, “Indol-3-YL-2-oxoacetamide compounds and methods of use thereof” (National Health Research Institutes, priority 2001, dated 2005) come the findings set out here.

pIC50: −log10 of the molar value.

The test system of assay [1] is rat aorta endothelial cells. Nature of the assay: Rat aorta tube formation assay (angiogenesis inhibition). The assay is classed as cell-based, Spraque-Dawley rats. Also noted: key: Noninhibitors are indicated by the symbol (−), meaning that the extent of endothelial cell growth is essentially at the same level as that of the control; The most potent inhibitors receive a score of (+++++), indicating essentially no measurable endothelial cell growth. The conditions noted are these: 5 days. On the procedure:
The procedures are modified from previous reports (Burbridge and West 2001; Bauer et al. 2000; Nicosai and Ottinetti 1990a) and described as follows. Male Spraque-Dawley rats of 6-8 weeks old are purchased from the National Laboratory Animal Breeding and Research Center (Taipei, Taiwan). The animals are anesthetized with urethane (2 g/kg, intraperitoneal) and the thoracic aortas are quickly harvested in a laminar flow hood. The aortas are rinsed with ice-cold normal saline with 10 μg/ml gentamicin and the attached fibroadipose tissues are removed using micro-dissection scissors. The aortas are cross-sectioned into rings of 1 mm in thickness. A mixture of Matrigel®, purchased from BD Biosciences, solution and the EBM-II medium, purchased from BioWhittaker Inc., (1:1) with 2% FBS, 0.25 mg/ml, amphotericin B and 10 μg/ml gentamicin is prepared and added at 100 μl to each well of a 48-well plate. The mixture is allowed to gel at 37° C. Aorta rings are then placed onto the gelled matrix and embedded in an additional 150 μl per well of the mixture solution and allowed to gel at 37° C. The aorta rings are then covered with 125 μl of the EGM-II medium and incubated overnight in humidified incubator with 5% CO2/95% air at 37° C. After removal of the EGM-II from the established aorta cultures, the compound-containing media are applied at 300 μl per well to the cultures and then incubated in 5% CO2/95% air at 37° C. for 5 days. The cultures are then subject to the 3-[4,5-dimethylthiazol-2-yl]-2,5 diphenyl-2H-tetrazolium bromide (MTT) or 3-(4,5-dimethylthiazol-2-yl)-5-(3-carbomethoxyphenyl)-2H-tetrazolium (MTS) assay and OD490 nm values measured. The testing compounds are dissolved in dimethyl sulfoxide (DMSO) and prepared in EBM-II media with at a final concentration of DMSO less than 0.1%.
The capillary-like, tube structure of the outgrown rat aorta endothelial cells is easily visualized by MTT staining. The medium on top of the matrix is removed from the established aorta ring cultures. MTT solution of 5 mg/ml in saline is added to the cultures at 100 μl/well and the cultures are incubated in a CO2 incubator at 37° C. for 24 hr. The stained cultures are then examined under a microscope DMIRB from Leica and photos taken with a digital camera.
Inhibition activity is also assessed in the following manner. The reductive reaction of MTS initiated by the viable cellular mitochondrial activity is used as a basis for the measurement of cell viability (Cory et al. 1991; Gieni et al. 1995). To the rat aorta ring cultures 300 μl of a solution containing 100 μg MTS and 1 μg, phenazine methosulfate is added per well and incubated in 5% CO2/95% air at 37° C. for 24 hr. During the incubation, MTS is converted to formazan product. At the end of incubation, the solution overlaying the gel is well-mixed and 100 μl aliquots are transferred into a 96-well plate for measurement of OD490 nm with a spectrophotometer VICTOR™-II from Wallac Oy.
The compounds listed in Table 3 are screened for angiogenesis inhibition. The control compound, ASTA, is D-24851, N-[pyridin-4-yl]-[1-(4-chlorobenzyl)-indol-3-yl]-glyoxylic acid amide. Noninhibitors are indicated by the symbol (−), meaning that the extent of endothelial cell growth is essentially at the same level as that of the control.

Assay [2] relates to gastric HR cancer cells. Kind of assay: In vitro cytotoxicity MTS assay, gastric HR. The assay is classed as cell-based, human. To be noted: 72 hours. How it is done: (§1) A panel of human cancer cells, gastric NUGC3 and HR, nasopharyngeal HONE1, hepatocellular HEP G2 and HA-22T, colorectal DLD1, lung A549, prostate PC3, breast MCF7 and its adriamycin-resistant MCF7/ADR subline, uterus MES-SA and its adriamycin-resistant MES-SA/Dx5 subline, is purchased from Food Industry Research and Development Institute, Hsinchu, Taiwan R.O.C. or American Type Culture Collection, Manassas, Va. U.S.A., are used in in vitro cytotoxicity assays. The human cells are seeded at a cell density of 3000 or 4500 cells/100 μl/well in 96-well flat-bottom plates and incubated for 24 hours at 37° C. in a 5% CO2 incubator. The testing compounds are dissolved in dimethyl sulfoxide (DMSO) and further diluted into the culture medium for treatments of human cancer cells in vitro. The drug-containing media has a final DMSO concentration of ≦0.3%. The compounds of this invention are prepared in culture media for testing at a range of concentrations from 10, 1, 0.1, 0.01 to 0.001 μM. Each compound solution is (200 μl/well in duplicate) in the cell plates and is treated for 72 hours at 37° C., 5% CO2 in an incubator. Actinomycin D at 5 μM and 0.3% DMSO are used as the positive and vehicle controls, respectively. A colorimetric assay using 3-(4,5-dimethylthiazol-2-yl)-5-(3-carboxymethoxyphenyl)-2-(4-sulfophenyl)-2H-tetrazolium (MTS) and phenazine methosulfate (PMS) is used to determine the potency of the compounds. This assay measures cell viability based on the cellular activity in conversion of a tetrazolium salt into a colored soluble formazan product. The optical density (OD) values are measured at 490 nm with a 1420 multilabel counter VICTOR® from Wallac, Turku, Finland. All of the measured values are subtracted with that of the blank control wells without cells before further calculations. The efficacy data are expressed as a percentage normalized to the vehicle controls as calculated in the following formulae. Inhibitory potency (% of vehicle control)=[(OD490compound−OD490blank)/(OD490vehicle−OD490blank)]×100%. The concentration (IC50) of a test compound that inhibits 50% of the cellular activity is determined.
A general note: Tetrazolium assays rely on reduction of a dye to a coloured formazan, in cell work by metabolically active cells.

The subject of assay [3] is uterus MES-SA cancer cells. Kind of assay: In vitro cytotoxicity MTS assay, uterus MES-SA. The assay is classed as cell-based, human. The conditions noted are these: 72 hours. How it is done: as §1
The subject of assay [4] is prostate PC3 cancer cells. Kind of assay: In vitro cytotoxicity MTS assay, prostate PC3. The assay is classed as cell-based, human. To be noted: 72 hours. On the procedure:
as §1

Assay [5] deals with lung A549 cancer cells. Kind of assay: In vitro cytotoxicity MTS assay, lung A549. It counts as cell-based, human. The conditions noted are these: 72 hours. How it is done:
as §1

Take `Cc1cc(NC(=O)C(=O)c2cn(Cc3ccc(C#N)cc3)c3ccccc23)sn1` [Compound 25]: the “Inhibition Score” value in assay [1] (final conc. 0.3 μg/ml) is “+++++”. In addition, the pIC50 in assay [2] was 6.47; in assay [3] it was 6.43; in assay [4] it was 6.16; in assay [5] it was 6.26.

`Cc1cc(Cn2cc(C(=O)C(=O)Nc3cc(C)ns3)c3ccccc32)on1` [Compound 56]: the “Inhibition Score” value is on record as “+++++” in assay [1] (final conc. 0.3 μg/ml) and “−” in assay [1] (final conc. 1 μg/ml). For the same compound, the pIC50 in assay [2] is 8.10; in assay [3], 6.53; in assay [4], 6.20; in assay [5], 6.25.
